# Source: patent US12414955B2 (priority 2020, dated 2025)
# Values joined by “and” are separate entries in the source; they are usually repeats but may differ in a detail not shown here. Identical values can stand only once.
# Columns and labels:
# in vitro [1] = conditions: African green monkey
# SARS-CoV-2 = experiment: microbe, parasite or virus in culture; format: cell-based; conditions: Severe acute respiratory syndrome coronavirus 2, A549, 48 h; read-out: IC50 for inhibition of SARS CoV-2 mediated cell killing
# in vitro [2] = conditions: African green monkey; remark: listed apart in the source
# SARS CoV-1 = experiment: organism not typed; format: cell-based, Toronto 2 SARS CoV-1; conditions: for average plate ZIP synergy score / maximum ZIP synergy score / concentrations at which synergy was realized: SARS CoV-1 CPE assay
# SARS CoV-2 = SARS CoV-2 cytopathic effect (CPE) assay in Vero E6 host cells; format: cell-based, USA_WA1/2020 SARS CoV-2
# [3] = Compound 1 in combination with hydroxychloroquine (HCQ)
# [4] = Compound 1 in combination with remdesivir
# [5] = combination of Compound 1 and hydroxychloroquine (HCQ)
# [6] = combination of Compound 1 and remdesivir
Compound,CC50 (in vitro [1]) [µM],IC50 (SARS-CoV-2) [µM],CC50 (in vitro [2]) [µM],further results
C[C@@H]1COCCN1c1cc(N2CCCC[C@@H]2C(F)(F)F)[nH]c(=O)c1 [Compound 1],> 30,0.108,> 30,"average plate ZIP synergy score (SARS CoV-1; [3]): 13.413; maximum ZIP synergy score (SARS CoV-1; [3]): 37.77; average plate ZIP synergy score (SARS CoV-1; [4]): 8.304; maximum ZIP synergy score (SARS CoV-1; [4]): 33.66; IC50 (SARS CoV-1; Vero C1008, 72 h, read-out: IC50 for inhibition of SARS CoV-1 mediated cell killing): 0.65 µM; concentrations at which synergy was realized (SARS CoV-1; [5]): ≤ 1.9 µM; concentrations at which synergy was realized (SARS CoV-1; [6]): ≤ 1.9 µM; average plate ZIP synergy score (SARS CoV-2): 5.523 and 8.345; maximum ZIP synergy score (SARS CoV-2): 32.8 and 40.8"
C[C@@H]1COCCN1c1cc(N2CCCC[C@@H]2c2ccccc2)[nH]c(=O)c1 [Compound 2],> 30,2.03,> 30,–
C[C@@H]1COCCN1c1cc(N2CCC[C@@H]2C(F)(F)F)[nH]c(=O)c1 [Compound 3],> 30,> 30,> 30,–
C[C@@H]1COCCN1c1cc(N2CCOC[C@H]2C(F)(F)F)[nH]c(=O)c1 [Compound 4],> 30,0.52,> 30,–
C[C@@H]1COCCN1c1cc(N2CCOCC23CCC3)[nH]c(=O)c1 [Compound 5],> 10,7.73,> 10,–
"CCN(CCO)CCCC(C)Nc1ccnc2cc(Cl)ccc12 (stereo not drawn) [HCQ, hydroxychloroquine, reference compound]",–,–,–,concentrations at which synergy was realized (SARS CoV-1; [5]): > 0.1 µM
"CCC(CC)COC(=O)[C@H](C)N[P@](=O)(OC[C@H]1O[C@@](C#N)(c2ccc3c(N)ncnn23)[C@H](O)[C@@H]1O)Oc1ccccc1 [Remdesivir, remdesivir, reference compound]",–,–,–,concentrations at which synergy was realized (SARS CoV-1; [6]): > 1.9 µM; concentrations at which synergy was realized (SARS CoV-2): above 0.5 μM
